Experiments:
Conditions in all cases: treatment: drug + dasatinib (fixed dose, not stated); 5 days
[1] = system: 769-P; experiment: AUC of dose-response viability curve, drug + dasatinib, normalised to DMSO (arbitrary (AUC of normalised viability)); higher = less growth inhibition
Protocol: (§1)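 Primary HTS combination arm: 8 RCC cell lines treated with 8 doses (up to 10 uM) of each library drug plus a fixed dose of dasatinib (dose not stated) for 5 days; viability read by CellTiter-Glo and normalised to DMSO. GI50 was fitted with XLfit, AUC is the area under the dose-response curve, and minimum viability is the lowest fraction of DMSO viability across doses.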

[2] = system: ACHN; experiment: as above
Protocol: as §1

[3] = system: UO-31; experiment: as above
Protocol: as §1

[4] = system: TK-10; experiment: as above
Protocol: as §1

[5] = system: A498; experiment: as above
Protocol: as §1

[6] = system: CAKI-1; experiment: as above
Protocol: as §1

[7] = system: 786-O; experiment: as above
Protocol: as §1

[8] = system: SN12C; experiment: as above
Protocol: as §1

[9] = system: 769-P; experiment: GI50 of drug in presence of dasatinib; higher = less potent
Protocol: as §1

[10] = system: ACHN; experiment: as above
Protocol: as §1

[11] = system: UO-31; experiment: as above
Protocol: as §1

[12] = system: TK-10; experiment: as above
Protocol: as §1

[13] = system: A498; experiment: as above
Protocol: as §1

[14] = system: CAKI-1; experiment: as above
Protocol: as §1

[15] = system: 786-O; experiment: as above
Protocol: as §1

[16] = system: SN12C; experiment: as above
Protocol: as §1

[17] = system: 769-P; experiment: minimum viability across doses, drug + dasatinib, relative to DMSO (fraction); higher = less growth inhibition
Protocol: as §1

[18] = system: ACHN; experiment: as above
Protocol: as §1

[19] = system: UO-31; experiment: as above
Protocol: as §1

[20] = system: TK-10; experiment: as above
Protocol: as §1

[21] = system: A498; experiment: as above
Protocol: as §1

[22] = system: CAKI-1; experiment: as above
Protocol: as §1

[23] = system: 786-O; experiment: as above
Protocol: as §1

[24] = system: SN12C; experiment: as above
Protocol: as §1

| GI50 of drug [10] | GI50 of drug [15] | Structure (SMILES) | AUC of dose-response viability curve [1] | AUC of dose-response viability curve [2] | AUC of dose-response viability curve [3] | AUC of dose-response viability curve [4] | AUC of dose-response viability curve [5] | AUC of dose-response viability curve [6] | AUC of dose-response viability curve [7] | AUC of dose-response viability curve [8] | GI50 of drug [9] | GI50 of drug [11] | GI50 of drug [12] | GI50 of drug [13] | GI50 of drug [14] | GI50 of drug [16] | minimum viability across doses [17] | minimum viability across doses [18] | minimum viability across doses [19] | minimum viability across doses [20] | minimum viability across doses [21] | minimum viability across doses [22] | minimum viability across doses [23] | minimum viability across doses [24] |
| --- | --- | --- | --- | --- | --- | --- | --- | --- | --- | --- | --- | --- | --- | --- | --- | --- | --- | --- | --- | --- | --- | --- | --- | --- |
| 0.0966 µM | 0.222 µM | CN(c1ncccc1CNc1nc(Nc2ccc3c(c2)CC(=O)N3)ncc1C(F)(F)F)S(C)(=O)=O.O=S(=O)(O)c1ccccc1 + Cc1nc(Nc2ncc(C(=O)Nc3c(C)cccc3Cl)s2)cc(N2CCN(CCO)CC2)n1 [dasatinib] | 1.93 | 1.66 | 3.91 | 2.28 | 3.75 | 1.98 | 1.6 | 2.16 | 1.56 µM | 3.01 µM | 3.29 µM | 3.51 µM | 0.966 µM | 4.15 µM | 0.0401 | 0.0114 | 0.0198 | 0.15 | 0.015 | 0.039 | 0.00638 | 0.012 |
| 0.0241 µM | 0.0181 µM | CC(=O)NCC(=O)N1[C@H]2CC[C@H]1c1cc(Nc3ncc(C(F)(F)F)c(NC4CCC4)n3)ccc12 + Cc1nc(Nc2ncc(C(=O)Nc3c(C)cccc3Cl)s2)cc(N2CCN(CCO)CC2)n1 [dasatinib] | 1.61 | 1.17 | 2.3 | 1.83 | 2.34 | 1.11 | 0.86 | 1.47 | 0.118 µM | 0.711 µM | 0.429 µM | 0.625 µM | 0.0306 µM | 0.128 µM | 0.028 | 0.0109 | 0.0156 | 0.116 | 0.0199 | 0.0773 | 0.0101 | 0.0154 |
| 0.729 µM | 1.06 µM | NCC(=O)Nc1ccc(-n2nc(C(F)(F)F)cc2-c2ccc3c(ccc4ccccc43)c2)cc1 + Cc1nc(Nc2ncc(C(=O)Nc3c(C)cccc3Cl)s2)cc(N2CCN(CCO)CC2)n1 [dasatinib] | 2.22 | 1.81 | 2.72 | 2.41 | 2.71 | 2.5 | 1.94 | 2.31 | 2.65 µM | 2.58 µM | 2.75 µM | 2.1 µM | 3.65 µM | 4.51 µM | 0.0325 | 0.0394 | 0.0147 | 0.177 | 0.0159 | 0.00695 | 0.00632 | 0.00289 |
| 0.0265 µM | 0.149 µM | O=C(NOCC(O)CO)c1cc(Br)c(F)c(F)c1Nc1ccc(I)cc1F (stereo unspecified) + Cc1nc(Nc2ncc(C(=O)Nc3c(C)cccc3Cl)s2)cc(N2CCN(CCO)CC2)n1 [dasatinib] | 2.06 | 1.45 | 2.59 | 2.23 | 2.39 | 1.91 | 1.75 | 2.1 | 0.8 µM | 1.69 µM | 2.54 µM | 1.56 µM | 0.68 µM | 1.22 µM | 0.278 | 0.279 | 0.164 | 0.404 | 0.344 | 0.133 | 0.327 | 0.357 |

From the supplement of paper PMC8149375
